Experimental data: EPA's ToxValDB 9.5 (doi:10.2903/j.efsa.2014.3485)
≈ marks a conversion by molar mass, not a printed value.

What was measured:
Colinus virginianus = settings: oral
Rattus norvegicus = settings: oral; for LD50: acute, mortality
Apis mellifera = settings: acute, duration: 48 hours, mortality
Canidae = settings: chronic; duration: 1 years; oral; Dog Other; histopathology: nonneoplastic
Daphnia magna = settings: chronic/long-term; duration: 21 days; reproduction
Hypoaspis aculeifer = settings: chronic/long-term
Mus musculus = settings: developmental; development
Neomysis kadiakensis = settings: chronic/long-term; duration: 28 days; reproduction
Typhlodromus pyri = experiment: LR50; higher = less toxic; settings: not reported; mortality
[1] = reproduction developmental, diet, reproduction

SMILES | LC50 (Colinus virginianus; acute, diet, mortality) [mg/kg-day] | LD50 (Rattus norvegicus) [mg/kg-day] | LD50 (Apis mellifera; dermal) [µg/piece] | LD50 (Apis mellifera; oral, unspecified) [µg/piece] | NOAEL (Canidae) [mg/kg-day] | LD50 (Colinus virginianus; acute, mortality) [mg/kg-day] | LOEL (Colinus virginianus; [1]) [mg/kg-day] | NOEL (Colinus virginianus; [1]) [mg/kg-day] | NOEC (Daphnia magna) [mg/L] | NOEC (Hypoaspis aculeifer) [mg/kg] | LOAEL (Mus musculus) [mg/kg-day] | NOEC (Neomysis kadiakensis) [mg/L] | LC50 (Oncorhynchus mykiss; acute, duration: 96 hours, mortality) [µg/mL] | NOEC (Oncorhynchus mykiss; chronic/long-term, duration: 83 days, growth) [mg/L] | NOEL (Rattus norvegicus; reproduction developmental, diet, body weight) [mg/kg-day] | LC50 (Tagia sp.; acute, duration: 14 days, mortality) [mg/kg] | NOEC (Tagia sp.; chronic/long-term, duration: 56 days, reproduction) [mg/kg] | LR50 (Typhlodromus pyri) [g/ha]
NC(Cc1ncn[nH]1)C(=O)O (stereo not given) [1,2,4-Triazole-3-alanine] | > 1370 | > 5000 |  |  |  |  |  |  |  |  |  |  |  |  |  |  |  | 
CC(C)(C)C(O)(CCc1ccc(Cl)cc1)Cn1cncn1 (stereo not given) [Tebuconazole] | > 703 | 1700 | > 200 | > 83 | 3 | 1990 | 12.4 | 5.8 | 0.01 | 50 | 10 | 0.035 | 4.4 (≈ 14.3 µM) | 0.012 | 10 | 1380 | 10 | 58
